From patent US8557737B2, “Methods of altering poppy characteristics” (priority 2005, dated 2013)
Where two headings read alike, the source gives them in different places.

Experiments:
[1] = system: poppy crops; assay: Example 10: field trial, triasulfuron and metsulfuron-methyl, morphine crop; assay type: in vivo, Papaver somniferum; settings: COMPOUND 1 120 MG/HA + PULSE .2 % V/V at GC, RU and BE
Protocol: (§1) All trials were conducted on poppy crops. Seed was treated with Thiram (5.6 g of Thiram 800/kg seed) and Apron (4 g/kg) and sown at a rate of approximately 750 g/ha. Fertilisers were applied at sowing. Most commonly, either 50:50 lime:superphosphate/triple superphosphate at 125 kg/ha, or lime:superphosphate at 250 kg/ha, were mixed with seed and drilled at a depth of 15 mm. In the same operation, NPK (nitrogen:phosphorus:potassium), at various rates, was banded 75 mm below the seed, unless otherwise stated. All crops were subjected to herbicide sprays for weed control, fungicide sprays for disease control, insecticide sprays if appropriate and were irrigated as required.
(§2) All spray applications were made with a precision sprayer, using Silvan Lurmark flat-fan, low-drift nozzles (LD110-0015). Spray equipment was calibrated to deliver 153 L water/ha.
(§3) At harvest, a 2 m×4 m quadrat was placed in each plot (3 m×6 m, unless otherwise stated) and capsules hand-picked from this area. Capsules were broken up, seed and capsule material separated and weighed. Capsule moisture readings were taken with a moisture meter. Alkaloid yield data were calculated on Pesticide Research Manager (version 5 for Windows) using the formulae below. Briefly, capsule weight was adjusted for moisture to a dry weight, 5% of seed weight was added to this (this amount of capsule material regularly occurs in seed samples after processing) to give a capsule weight per plot. Seed weight was adjusted to 95% of crude weight. Straw weights were determined by multiplying dry capsule weight by 1.3 (estimated amount of stem material in a commercial harvest) and adjusted to 11% moisture. When Lontrel was applied to crops exact capsule and seed weight data were entered. Analyses of variance and a Multiple Range Test were performed on data using Pesticide Research Manager. Significant differences (P=0.05) between treatments are denoted by different lower case letters adjacent to treatment means in the tables of results.
[…] Treatment sprays were applied to crop at ground cover, mid run-up and bud-emergence, respectively.

[2] = system: poppy crops; assay: Example 9: field trial, mesosulfuron-methyl and metsulfuron-methyl, morphine crop; assay type: in vivo, Papaver somniferum; settings: COMPOUND 1 120 MG/HA + PULSE .2 % V/V at GC, LRU and EBE
Protocol: as §1, §2
as §3, with “Manager.” for “Manager. Significant differences (P=0.05) between treatments are denoted by different lower case letters adjacent to treatment means in the tables of results.”
Trial to evaluate applications of mesosulfuron-methyl (Compound 2) and metsulfuron-methyl (Compound 1), in a morphine crop. Treatment sprays were applied to crop at ground cover, late run-up and early bud-emergence, respectively. Plant heights were measured at green capsule stage, and lodging assessed on the day of capsule harvest.

[3] = system: poppy crops; assay: Example 6: field trial, one or two applications of metsulfuron-methyl after Sunny versus metsulfuron-methyl alone; assay type: in vivo, Papaver somniferum; settings: COMPOUND 1 120 MG/HA + PULSE .2 % V/V at ERU and at BE (two applications, alone)
Protocol: as §1, §2, §3
Trial to evaluate one or two applications of 120 mg/ha metsulfuron-methyl (Compound 1) after 1 L/ha Sunny, and compare with two applications of metsulfuron-methyl alone. Sunny was applied with crop at 12-14 leaf, metsulfuron-methyl to crop at 12-14 leaf, early run-up and bud-emergence stages. Plant heights were measured at early-full flower and percent lodging was measured on the day of capsule harvest.

[4] = system: poppy crops; set-up: species or system Papaver somniferum; settings: in vivo
[5] = system: poppy crops; assay: Example 12: field trial, metsulfuron-methyl, Sunny and metsulfuron-methyl+Sunny at row cover, early run-up, late run-up, morphine crop; assay type: in vivo, Papaver somniferum; settings: Trt 3: COMPOUND 1 120 MG/HA + PULSE .2% V/V at RC, ERU and LRU
Protocol: as §1, §2, §3
Trial to evaluate applications of metsulfuron-methyl (Compound 1), Sunny and metsulfuron-methyl+Sunny, in a morphine crop. Treatment sprays were applied to crop at row cover, early run-up and late run-up. Plant heights were measured at end of flowering.

[6] = system: poppy crops; assay: Example 1: field trial, metsulfuron-methyl 36 or 120 mg/ha at 12-14 leaf and ground cover, morphine crop; assay type: in vivo, Papaver somniferum
Protocol: as §1, §2, §3
Metsulfuron-methyl (Compound 1) was applied at a rate of 36 or 120 mg/ha at 12-14 leaf and ground cover growth stages, in a morphine crop.

## COC(=O)c1ccccc1S(=O)(=O)NC(=O)Nc1nc(C)nc(OC)n1 [Compound 1, metsulfuron-methyl]
[1]
  CAPSULE/SEED RATIO: 11.957 a
  CROP WEIGHT: 1.86 a t/ha
  HEIGHT: 84.2 b cm
  MORPHINE: 39.63 a kg/ha
  SEED: 105 c kg/ha
  STRAW: 1757 a kg/ha
  STRAW MORPHINE: 2.25 a %
[2]
  CAPSULE/SEED RATIO: 3.844 a
  CROP WEIGHT: 2.67 b t/ha
  MORPHINE: 43.94 a kg/ha
  SEED: 468 b kg/ha
  STRAW: 2206 a kg/ha
  STRAW MORPHINE: 2.04 a %
[2]; assessed on the day of capsule harvest
  LODGING: 2.3 c %
[2]; measured at green capsule stage
  HEIGHT: 94.5 ab cm
[3]
  CAPSULE/SEED RATIO: 6.140 a
  CROP WEIGHT: 2.46 c t/ha
  MORPHINE: 38.8 b kg/ha
  SEED: 269 c kg/ha
  STRAW: 2194 a kg/ha
  STRAW MORPHINE: 1.77 b %
[3]; measured at early-full flower
  PLANT HEIGHT: 77.4 cm·days
[3]; measured on the day of capsule harvest
  LODGING: 1.0 b %
[4]
  CAPSULE/SEED RATIO: 0.883 a
  MORPHINE: 26.32 c kg/ha
  PLANT HEIGHT: 67 c cm
  SEED: 1015 b kg/ha
  STRAW: 1255 c kg/ha
  STRAW MORPHINE: 2.09 b %
  YIELD: 2.27 c t/ha
[5]
  CAPS/SEED RATIO: 10.444 a
  CROP WEIGHT: 2.24 b t/ha
  MORPHINE: 47.11 b kg/ha
  SEED: 143 c kg/ha
  STRAW: 2099 a kg/ha
  STRAW MORPHINE: 2.24 c %
[5]; height at end of flowering
  HEIGHT: 83.4 bc cm
[6]; 36 MG/HA at 12-14LF
  CAPSULE/SEED RATIO: 0.603
  CROP WEIGHT: 3.78 t/ha
  MORPHINE: 24.25 kg/ha
  SEED: 2020 kg/ha
  STRAW: 1757 kg/ha
  STRAW MORPHINE: 1.38%
[6]; 120 MG/HA at 12-14LF
  CAPSULE/SEED RATIO: 0.673
  CROP WEIGHT: 3.37 t/ha
  MORPHINE: 24.40 kg/ha
  SEED: 1710 kg/ha
  STRAW: 1660 kg/ha
  STRAW MORPHINE: 1.47%
[6]; 120 MG/HA at GC (ground cover)
  CAPSULE/SEED RATIO: 1.253
  CROP WEIGHT: 3.10 t/ha
  MORPHINE: 26.19 kg/ha
  SEED: 1105 kg/ha
  STRAW: 1999 kg/ha
  STRAW MORPHINE: 1.31%
